Results taken from PMC6268061, “Investigation of the Biological Properties of (Hetero)Aromatic Thiosemicarbazones” (Molecules, 2012).
Read-outs that look alike come from different tables or passages of the source.

How the values were obtained:
Candida krusei ATCC 6258 = test: In vitro antifungal susceptibility, broth microdilution; type: cell-based; conditions: Pichia kudriavzevii, read-out: MIC (IC80) CK
[1] = system: Trichophyton mentagrophytes 445; test: as above; type: cell-based; conditions: read-out: MIC (IC50) TM
Candida tropicalis 156 = test: as above; type: cell-based; conditions: read-out: MIC (IC80) CT
[2] = system: Trichosporon beigelii 1188; test: as above; type: cell-based; conditions: read-out: MIC (IC80) TB
Excerpt: The broth microdilution test was used for the assessment of the in vitro antifungal activity of the synthesized compounds against Candida albicans ATCC 44859 (CA), Candida tropicalis 156 (CT), Candida krusei ATCC 6258 (CK), Candida glabrata 20/I (CG), Trichosporon beigelii 1188 (TB), Aspergillus fumigatus 231 (AF), Absidia corymbifera 272 (AC), and Trichophyton mentagrophytes 445 (TM). Fluconazole (FLU) was used as the standard since it is a clinically used antimycotic drug. The procedure was performed using a twofold dilution of the compounds in RPMI 1640 (Sevapharma a.s., Prague, Czech Republic) buffered to pH 7.0 with […] of 3-morpholino-propane-1-sulfonic acid (MOPS, Sigma, Prague, Czech Republic). The final concentrations of the compounds ranged from 500 to 0.975 μmol/L. Drug-free controls were included. The determination of minimum inhibitory concentration (MIC) was performed according to the Clinical and Laboratory Standards Institute (CLSI, formerly NCCLS) reference protocol M27-A2 for yeasts (IC80 value) and M38-A for moulds (IC50 value). IC80 and IC50 were defined as an 80% resp. 50% or greater reduction in growth in comparison with the control. The values of MICs were determined after 24 and 48 h of static incubation at 35 °C. The final MICs for T. mentagrophytes, were determined after 72 and 120 h of incubation.

[3] = system: HCT-116 human colon cancer cells (p53 wild type); parameters: method as in PMID 22858101; conditions: footnote 3: anticancer activity described elsewhere ref [34],[44]; cited from earlier work
[4] = Lipophilicity determination using RP-HPLC (capacity factor, log k); type: physicochemical; conditions: C18, MeOH 55%/H2O 45%
Excerpt: Reversed phase high performance liquid chromatography (RP-HPLC) methods have become popular and are widely used for lipophilicity measurements. The general procedure is the measurement of the directly accessible retention time under isocratic conditions using varying amounts of methanol as an organic modifier in the mobile phase using RP columns and calculating the logarithm of the capacity factors (log k). Log k is the logarithm of the capacity factors in chromatographic approaches that is related to the partitioning of a compound between a mobile and a (pseudo-)stationary phase. Log k is used as the lipophilicity index converted to log P scale.
A Waters Alliance 2695 XE HPLC separation module and a Waters Photodiode Array Detector 2996 (Waters Corp., Milford, MA, USA) were used. A Symmetry® C18 5 μm, 4.6 × 250 mm, Part No. WAT054275 (Waters Corp.) chromatographic column was used. The HPLC separation process was monitored using Empower™ 2 Chromatography Data Software, Waters 2009 (Waters Corp.). A mixture of MeOH p.a. (55%) and H2O-HPLC-Mili-Q Grade (45%) was used as a mobile phase. The total flow of the column was 0.9 mL/min, injection volume 30 μL, column temperature 30 °C and sample temperature 10 °C. A detection wavelength of 210 nm was chosen. A KI methanolic solution was used for the determination of dead time (tD). Retention times (tR) were measured in minutes. The capacity factors k were calculated using the Empower™ 2 Chromatography Data Software according to the formula k = (tR − tD)/tD, where tR is the retention time of the solute, whereas tD denotes the dead time obtained using an unretained analyte. Log k, calculated from the capacity factor k, is used as the lipophilicity index converted to log P scale.

[5] = system: Aspergillus fumigatus 231; test: In vitro antifungal susceptibility, broth microdilution; type: cell-based; conditions: read-out: MIC (IC50) AF
Candida glabrata 20/I = test: as above; type: cell-based; conditions: Nakaseomyces glabratus, read-out: MIC (IC80) CG
Absidia corymbifera 272 = test: as above; type: cell-based; conditions: read-out: MIC (IC50) AC
[6] = system: Candida albicans ATCC 44859; test: as above; type: cell-based; conditions: read-out: MIC (IC80) CA
[7] = system: HCT-116 human colon cancer cells (p53 wild type); test: In vitro antiproliferative activity, MTS assay; type: cell-based; conditions: HCT-116, 72 h incubation, MTS, read-out: HCT-116 IC50
Experimental: The antiproliferative activity of all of the compounds was examined against the human colon cancer (HCT-116) cell line using an MTS assay. The HCT-116 p53 wild type cell line was chosen on the basis of our former experience and some results on the activity of quinoline-based thiosemicarbazones that was published recently. Namely, compounds 4a–l have been tested previously for their wide-ranging anticancer activity. The antiproliferative activity of the compounds evaluated was assessed using Doxorubicin as a reference compound. In general, quinoline-based thiosemicarbazones 4 seem to have a much better anticancer activity than halogenophenyl compounds 3. Thus, the quinoline nucleus can be defined as being crucial for antiproliferative activity. A more detailed analysis of the anticancer activity of quinoline-based thiosemicarbazone is available. […] Nevertheless, some more general conclusions can be drawn from the gathered data. […] The free amino group or substitution pattern with small substituents such as methyl or ethyl are favorable for activity. According to our former results the chelating ability of the compounds may be one of the prerequisites of the antiproliferative activity. In this study we have measured the UV-VIS spectra of the compounds in presence of various concentration of Fe^3+ cations to observe its chelating potency (supplementary material). […] However as 4j give also two points at 330 and 385 nm, iron chelating ability should be regarded only as one of the factor influencing the biological activity.
The human colon cancer cell line HCT116 with the wild type p53 gene (p53^+/+) were obtained from Maria Sklodowska-Curie Memorial Cancer Center in Gliwice, Poland. Briefly, the cells were seeded in 96-well plates (3 × 10^3 cells/well) in cellular proliferation assays 24 h before the addition of the chelators. The assay was performed following a 72 h incubation with varying concentrations of the agents. Each compound was tested in triplicate in a single experiment with each experiment being repeated 3 times. After 72 h incubation with the compounds being investigated, 20 µL of MTS solution was added to each well (100 µL) and incubated for 1 h at 37 °C. The optical densities of the samples were analyzed at 490 nm. Results were expressed as a percentage of the control. The inhibitory concentration (IC50) was defined as the compound concentration necessary to reduce the absorbance to 50% of the untreated control.

[8] = system: photosynthetic electron transport (PET) in spinach chloroplasts; test: Inhibition of photosynthetic electron transport (PET) in spinach chloroplasts; type: biochemical, Spinacia oleracea L.; conditions: DCPIP photoreduction
Experimental: Chloroplasts were prepared from spinach (Spinacia oleracea L.) according to Masarovicova and Kralova. The inhibition of the photosynthetic electron transport (PET) in spinach chloroplasts was determined spectrophotometrically (Genesys 6, Thermo Fisher Scientific, Waltham, MA, USA) using an artificial electron acceptor 2,6-dichlorophenol-indophenol (DCIPP) according to Kralova et al. and the rate of photosynthetic electron transport was monitored as a photoreduction of DCPIP. The measurements were carried out in a phosphate buffer (0.02 mol/L, pH 7.2) containing sucrose (0.4 mol/L), MgCl2 (0.005 mol/L) and NaCl (0.015 mol/L). The chlorophyll content was 30 mg/L in these experiments and the samples were irradiated (~100 W/m^2 with 10 cm distance) with a halogen lamp (250 W) using a 4 cm water filter to prevent warming of the samples (suspension temperature 22 °C). The compounds studied were dissolved in DMSO due to their limited water solubility. […] The inhibitory efficiency of the compounds studied was expressed by IC50 values, i.e., by the molar concentration of the compounds that caused a 50% decrease in the oxygen evolution rate relative to the untreated control.

[9] = ATCC6258, 24 h and 48 h, only one value presented (inactive)
[10] = Trichophyton mentagrophytes, 445, 72 h and 120 h, only one value presented (inactive)
[11] = Candida tropicalis, 156, 24 h and 48 h, only one value presented (inactive)
[12] = Trichosporon beigelii, 1188, 24 h and 48 h, only one value presented (inactive)
[13] = Aspergillus fumigatus, 231, 24 h and 48 h, only one value presented (inactive)
[14] = 24 h and 48 h, only one value presented (inactive)
[15] = Lichtheimia corymbifera, 272, 24 h and 48 h, only one value presented (inactive)
[16] = ATCC44859, 24 h and 48 h, only one value presented (inactive)

Row | SMILES | MIC (Candida krusei ATCC 6258; [9]) [µM] | IC50 [1, 10] [µM] | MIC (Candida tropicalis 156; [11]) [µM] | MIC [2, 12] [µM] | IC50 [3] [µM] | log k [4] | IC50 [5, 13] [µM] | MIC (Candida glabrata 20/I; [14]) [µM] | IC50 (Absidia corymbifera 272; [15]) [µM] | MIC [6, 16] [µM] | IC50 [7] [µM] | IC50 [8] [µM] | also measured
1 | NC(=S)N/N=C/c1cccc(Cl)c1Cl [Compound 3a, (E)-2-(2,3-Dichlorobenzylidene)hydrazinecarbothioamide] | > 125 | > 125 | > 125 | > 125 | 41.5 ± 1.7 | 0.6892 | > 125 | > 125 | > 125 | > 125 | – | – | –
2 | CCNC(=S)N/N=C/c1cccc(Cl)c1Cl [Compound 3d, (E)-2-(2,3-Dichlorobenzylidene)-N-ethylhydrazinecarbothioamide] | > 500 | > 500 | > 500 | > 500 | 58.5 ± 0.2 | 0.7958 | > 500 | > 500 | > 500 | > 500 | – | – | –
3 | NC(=S)N/N=C/c1ccc(Cl)c(Cl)c1 [Compound 3f, (E)-2-(3,4-Dichlorobenzylidene)hydrazinecarbothioamide] | > 500 | > 500 | > 500 | > 500 | – | 0.6974 | > 500 | > 500 | > 500 | > 500 | 46 ± 0.9 | 283 | –
4 | CNC(=S)N/N=C/c1ccc(Cl)c(Cl)c1 [Compound 3g, (E)-2-(3,4-Dichlorobenzylidene)-N-methylhydrazinecarbothioamide] | > 125 | > 125 | > 125 | > 125 | – | 0.7563 | > 125 | > 125 | > 125 | > 125 | 55.5 ± 6.2 | 136 | –
5 | CCNC(=S)N/N=C/c1ccc(Cl)c(Cl)c1 [Compound 3i, (E)-2-(3,4-Dichlorobenzylidene)-N-ethylhydrazinecarbothioamide] | > 500 | > 500 | > 500 | > 500 | – | 0.8415 | > 500 | > 500 | > 500 | > 500 | 48.5 ± 2.8 | 280 | –
6 | S=C(N/N=C/c1ccc(Cl)c(Cl)c1)Nc1ccccc1 [Compound 3j, (E)-2-(3,4-Dichlorobenzylidene)-N-phenylhydrazinecarbothioamide] | > 125 | > 125 | > 125 | > 125 | – | 0.9774 | > 125 | > 125 | > 125 | > 125 | > 60 | 426 | –
7 | CCNC(=S)N/N=C/c1ccc(Br)cc1 [Compound 3n, (E)-2-(4-Bromobenzylidene)-N-ethylhydrazinecarbothioamide] | > 500 | > 500 | > 500 | > 500 | > 60 | 0.7568 | > 500 | > 500 | > 500 | > 500 | – | – | –
8 | Oc1cccc2ccc(C=NNC(=S)Nc3ccccc3)nc12 [Compound 4h] | – | – | – | – | 25 ± 4.29 | 0.7548 | – | – | – | – | – | – | MIC (Candida krusei ATCC 6258; ATCC6258, 24 h): > 125 µM; MIC (Candida krusei ATCC 6258; ATCC6258, 48 h): > 125 µM; IC50 ([1]; Trichophyton mentagrophytes, 445, 72 h): > 125 µM; IC50 ([1]; Trichophyton mentagrophytes, 445, 120 h): > 125 µM; MIC (Candida tropicalis 156; Candida tropicalis, 156, 24 h): > 125 µM; MIC (Candida tropicalis 156; Candida tropicalis, 156, 48 h): > 125 µM; MIC ([2]; Trichosporon beigelii, 1188, 24 h): > 125 µM; MIC ([2]; Trichosporon beigelii, 1188, 48 h): > 125 µM; IC50 ([5]; Aspergillus fumigatus, 231, 24 h): > 125 µM; IC50 ([5]; Aspergillus fumigatus, 231, 48 h): > 125 µM; MIC (Candida glabrata 20/I; 24 h): > 125 µM; MIC (Candida glabrata 20/I; 48 h): > 125 µM; IC50 (Absidia corymbifera 272; Lichtheimia corymbifera, 272, 24 h): > 125 µM; IC50 (Absidia corymbifera 272; Lichtheimia corymbifera, 272, 48 h): > 125 µM; MIC ([6]; ATCC44859, 24 h): > 125 µM; MIC ([6]; ATCC44859, 48 h): > 125 µM
